{"source": "a melting point compilation (Tetko et al.; mined from patent text by program, amines drawn as free bases though some values may be those of a salt)"}
{"units": {"melting point": "°C"}}
{"molecule": "CC(OC(=O)OC1CC(=O)NC1=O)OC(=O)C(C)C", "note": "(stereo not given)", "melting point": "50 to 54"}
{"molecule": "CCOc1cc(C=O)ccc1OCc1nc(-c2ccco2)oc1C", "melting point": "159 to 160"}
{"molecule": "CCc1nc2cc(COC)c(Cl)cc2n1-c1ccc(CCNC(=O)NS(=O)(=O)c2ccc(C)cc2)cc1", "melting point": 135}
{"molecule": "CC(C)(C#N)c1ccc(C(=O)Nc2cn3cc(-n4ccnc4)ccc3n2)cc1", "melting point": "241 to 244"}
{"molecule": "COC(=O)CCn1c(=O)n(CCN2CCN(c3cccc(C(F)(F)F)c3)CC2)c(=O)c2cscc21", "melting point": "87 to 88"}
{"molecule": "COc1cc(Br)c(O)c(C=O)c1", "melting point": "107 to 110"}
{"molecule": "Cc1cccc(C(=O)NC(NC(=NC#N)Nc2ccc(Cl)nc2)C(C)(Cl)Cl)c1", "note": "(stereo not given)", "melting point": "145 to 146"}
{"molecule": "COc1cc(Cc2cnc(NCCSCc3ncccc3Br)[nH]c2=O)ccn1", "melting point": "70 to 72"}
{"molecule": "CS(=O)c1ccc(C(=O)Cc2ccccc2)cc1", "note": "(stereo not given)", "melting point": 104}
{"molecule": "O=C1CCc2ccc(OCCCN3CCCN(c4cccc(Cl)c4Cl)CC3)cc2N1", "melting point": "130 to 131"}
{"molecule": "O=S(=O)(c1ccccc1)N1CCN(CC(O)CCl)CC1", "note": "(stereo not given)", "melting point": "136 to 137"}
{"molecule": "CC(=O)c1cc(F)c(OCCOc2ccc3ccccc3c2)c(F)c1", "melting point": "108 to 110"}
{"molecule": "CCN(CC)C(=O)COc1ccc(C(=O)CCl)cc1", "melting point": "89 to 91"}
{"molecule": "CN(C)C=Cc1ncc([N+](=O)[O-])n1CCOC(=O)c1ccccc1", "melting point": "153 to 154"}
{"molecule": "OCC1Cc2cc(F)cc(Br)c2O1", "note": "(stereo not given)", "melting point": "53 to 57"}
{"molecule": "CSC(=N)Nc1c(C)cccc1Cl", "melting point": "183 to 184"}
{"molecule": "COc1cc2c(Cl)c(C#N)cnc2c(OC)c1OC", "melting point": "161 to 163"}
{"molecule": "CC(C)(C)c1cc(C=CC#N)cc(C(C)(C)C)c1O", "melting point": "109 to 113"}
{"molecule": "CC(=O)Nc1nc2c(s1)-c1c(c(-c3c[nH]cn3)nn1-c1ccccc1C(F)(F)F)CC2", "melting point": "> 300"}
{"molecule": "Nc1nccc2ccc(OS(=O)(=O)C(F)(F)F)cc12", "melting point": "115 to 118"}
{"molecule": "CCC1=CC(=O)c2ccccc2C1=O", "melting point": "87 to 88"}
{"molecule": "C=CC(=O)OCCCCCCCCOc1ccc(C(=O)O)cc1", "melting point": "157 to 158"}
{"molecule": "O=C(C(=O)c1ccc(F)c(CF)c1)c1ccc(OC(F)F)cc1", "melting point": "68 to 70"}
{"molecule": "COCCCNC(=O)c1[nH]c(C)c(-c2nc3ccc(C(=O)c4ccccc4)cc3[nH]2)c1C", "melting point": "256 to 258"}
{"molecule": "Nc1nnc(C(=O)OCc2ccccc2)s1", "melting point": "198 to 200"}
{"molecule": "CC1CC(NC(=O)C(F)(F)F)=NN1c1ccc(Cl)cc1", "note": "(stereo not given)", "melting point": "170 to 172"}
{"molecule": "CC(Br)CN(CC(C)Br)c1c(C(=O)NCCOP(=O)(O)O)cc([N+](=O)[O-])cc1[N+](=O)[O-]", "note": "(stereo not given)", "melting point": "157 to 161"}
{"molecule": "CC1N=C(c2ccccc2F)c2cc(C(C)N)ccc2N(C)C1=O", "note": "(stereo not given)", "melting point": "48 to 50"}
{"molecule": "Cc1ccccc1NC(=O)N(C)C", "melting point": "139 to 143"}
{"molecule": "Nc1cc([N+](=O)[O-])ccc1Nc1cccc(-c2nccs2)c1", "melting point": "146 to 159"}
{"molecule": "COc1cc(C(C)C)c2c(c1)S(=O)(=O)N(COc1cc(C(F)(F)F)nn1-c1cccc(C(F)(F)F)n1)C2=O", "melting point": "149 to 150"}
{"molecule": "S=c1[nH]ccn1Cc1ccco1", "melting point": "106 to 108"}
{"molecule": "O=C(Nc1nnn(CC(F)(F)F)n1)C1c2ccccc2Oc2ccccc21", "melting point": "209 to 210"}
{"molecule": "Cc1cccc(C(=O)c2cccc(N)c2)c1", "melting point": 110}
{"molecule": "Cc1cc(C)c(-n2ccc3c(Cl)nn(C)c(=O)c32)c(C)c1", "melting point": "170 to 171"}
{"molecule": "CCCCc1oc2ccccc2c1-c1ncc(-c2ccc3cc(OCC(=O)O)ccc3c2)o1", "melting point": "214 to 216"}
{"molecule": "COc1ccc(-c2c3c(c(C)c4ccc(OC)cc24)C(=O)NC3=O)cc1", "melting point": "282 to 284"}
{"molecule": "C=CCc1cc(C=C2SCNC2=O)cc(CC=C)c1O", "melting point": "184 to 188"}
{"molecule": "CCC(COC)n1nnc2c(Nc3ccc(C(C)=O)cc3Br)nc(C)nc21", "note": "(stereo not given)", "melting point": "133 to 134"}
{"molecule": "CCN(CC)C(=O)COC(=O)c1ccc(N)cc1", "melting point": "135 to 136"}
{"molecule": "CCN(CC)CCNC(=O)c1cnc(-c2ccccc2)nc1S", "melting point": "178 to 180"}
{"molecule": "CC(C)(Oc1ccc(C(=O)c2ccc(Cl)cc2)cc1)C(=O)Oc1ccc(I)cc1", "melting point": "149 to 150"}
{"molecule": "O=c1oc(Nc2ccccc2F)nc2ccccc12", "melting point": "152 to 155"}
{"molecule": "CCONC(=O)c1cccc(NC(C)=C2C(=O)OC(=O)C(C(C)=O)=C2O)c1", "melting point": "162 to 164"}
{"molecule": "CC(C)(C)O[C@@H]1C[C@@H](COCc2ccccc2)N(S(=O)(=O)c2ccc3ccccc3c2)C1", "melting point": "101 to 103"}
{"molecule": "COC(=O)CCC(=O)c1cccc(O)c1", "melting point": "102 to 103"}
{"molecule": "CNC(=O)[C@@H](NC(=O)[C@@H](CC(=O)OCc1ccccc1)n1ccc(-c2ccc(C#N)cc2)c1)C(C)(C)C", "melting point": "102 to 104"}
{"molecule": "O=c1cc(-c2ccncc2)nc2n1CCC(C(F)(F)F)N2", "note": "(stereo not given)", "melting point": "302 to 304"}
{"molecule": "CC(C)c1ccc(S(=O)(=O)Nc2ccc(N3CCC(NCC(O)COc4ccc(O)cc4)CC3)nc2)cc1", "note": "(stereo not given)", "melting point": "75 to 78"}
{"molecule": "CSc1nnc2c3ccccc3c(-c3ccccc3)nn12", "melting point": "220 to 221"}
{"molecule": "O=C1C(=Cc2ccncc2)C(=O)c2ccccc21", "melting point": "152 to 157"}
{"molecule": "CC(C)NC(=O)c1cccc(-c2ccnc3c(C(=O)c4cccs4)cnn23)c1", "melting point": "218 to 220"}
{"molecule": "Cc1c(C(=O)O)cnn1-c1cc(Cl)cc(Cl)c1", "melting point": "229 to 230"}
{"molecule": "Cc1nc(Cl)c(C)c(-c2c(C)c(N)c(C)c3nsnc23)n1", "melting point": "105 to 106"}
{"molecule": "Cn1nc(O[C@@H]2c3cc([N+](=O)[O-])ccc3OC(CF)(CF)[C@H]2O)ccc1=O", "note": "(relative stereo)", "melting point": "226 to 228"}
{"molecule": "CC(C)CCCC(C)C1CCC2(C#N)C3C=CC4C(C)(C)C(OC(=O)c5ccccc5)CCC4(C)C3CCC12C", "note": "(stereo not given)", "melting point": "232 to 233"}
{"molecule": "NC(=O)c1sc2nccc(N3CCCN(c4ccc([N+](=O)[O-])cc4)CC3)c2c1N", "melting point": "244 to 248"}
{"molecule": "CCC(CC)CNC(=O)c1ccc2cccc(Cc3ccc(C(=O)OC)cc3OC)c2c1", "melting point": 130}
{"molecule": "Cc1cc(NCC(C)C)c2[nH]nc(-c3ccccc3)c2n1", "melting point": "187 to 190"}
{"molecule": "CCCCCNc1ccc(OC2CCN(C(C)=O)CC2)cc1", "melting point": "69 to 71"}
{"molecule": "Cc1c(-c2cccnc2)n(CCCCCC(=O)O)c2ccccc12", "melting point": "111 to 113"}
{"molecule": "COc1ccc(C2(CCN3CCC(c4nc5ccccc5s4)CC3)CCN(C(=O)c3ccccc3)C2)cc1OC", "note": "(stereo not given)", "melting point": "60 to 62"}
{"molecule": "Cc1ccc(-c2ccccc2-c2nnn[nH]2)cc1", "melting point": "148 to 150"}
{"molecule": "C=CCN1C(=O)C2CC2(c2ccc(N)cc2)C1=O", "note": "(stereo not given)", "melting point": "104 to 106"}
{"molecule": "O=C1CCC(N2Cc3c(OCc4ccc(CN5CC6CCC(C5)O6)cc4)cccc3C2=O)C(=O)N1", "note": "(stereo not given)", "melting point": "228 to 230"}
{"molecule": "C#CCc1c(F)c(F)c(CO)c(F)c1F", "melting point": "51 to 52"}
{"molecule": "Nc1cccc(Oc2cnc3cc(Cl)ccc3n2)c1", "melting point": "119 to 120"}
{"molecule": "Nc1cccc(-c2ccc(CCN3C4CCC3CC(N)C4)cc2)n1", "note": "(stereo not given)", "melting point": "> 300"}
{"molecule": "N#CSc1nc(Cl)ncc1I", "melting point": "185 to 186"}
{"molecule": "CC(=CC1=NCCC1)N(C)C1CCCCC1", "melting point": "152 to 153"}
{"molecule": "CCN(CC)CCn1c(O)nc2cc(Cl)c(Cl)nc21", "melting point": "137 to 139"}
{"molecule": "Cn1cnc2nc(-c3ccc(Cl)cn3)nn2c1=S", "melting point": "> 300"}
{"molecule": "COC(=O)C1=C(C)NC(C)=C(C(=O)OCC2CCCO2)C1c1ccccc1Br", "note": "(stereo not given)", "melting point": "170 to 172"}
{"molecule": "CN1C(=O)c2cnc(-c3ccccc3)nc2Nc2ccccc21", "melting point": 227}
{"molecule": "COC(=O)N(C)C(=O)N(SC(Cl)Cl)c1ccccc1", "melting point": "77 to 78"}
{"molecule": "CCCCc1n[nH]c(=S)n(N)c1=O", "melting point": 131}
{"molecule": "O=c1ccc2c(Br)nccc2[nH]1", "melting point": "272 to 274"}
{"molecule": "CC(=O)c1ccc(N2CCN(C)CC2)cc1", "melting point": "97 to 99"}
{"molecule": "Ic1ccc(SSc2ccc(I)cc2)cc1", "melting point": "122 to 123"}
{"molecule": "CCOP(=O)(CCc1cn(-c2ccccc2)nc1O)OCC", "melting point": "121 to 122"}
{"molecule": "ICCCCCOc1ccc(C2=C(c3ccccc3)CCCc3ccccc32)cc1", "melting point": "104 to 106"}
{"molecule": "Fc1cccc(F)c1-c1nccc(-c2ccc(-c3ccc(C(F)(F)F)cc3)cc2)n1", "melting point": "141 to 142"}
{"molecule": "N#CC1OC12CCN(C(=O)c1ccc(F)c(Cl)c1)CC2", "note": "(stereo not given)", "melting point": "100 to 101"}
{"molecule": "COc1ccc(CNC(=O)CCC(=O)c2ccc3[nH]c4ncc(Cl)cc4c3c2)cc1", "melting point": 228}
{"molecule": "Cc1nc2c(c3c1[nH]c1ccccc13)C(=NO)CC(C)(C)C2", "melting point": "293 to 294"}
{"molecule": "Fc1c(F)c(F)c(CSc2ncccn2)c(F)c1F", "melting point": "89 to 92"}
{"molecule": "COC(=O)c1ccn(C)c1S(=O)(=O)NC(C)(C)C", "melting point": "105 to 108"}
{"molecule": "O=C(O)CCCCCCCCCCCCCCCOCc1ccccc1", "melting point": "56 to 59"}
{"molecule": "O=c1c2cccnc2sc(=Nc2ccc(C(F)(F)F)cc2)n1Cc1ccccc1", "melting point": "126 to 128"}
{"molecule": "O=c1c2ccccc2nc(CCl)n1-c1cccc(Cl)c1", "melting point": "202 to 205"}
{"molecule": "C=CC12CCc3cc(NS(=O)(=O)O)ccc3C1CCC1(C)C(O)CCC12", "note": "(stereo not given)", "melting point": "82 to 86"}
{"molecule": "CN(CCOc1ccc(OC(F)(F)F)cc1)C1CCN(c2ccc(OC[C@@]3(C)Cn4cc([N+](=O)[O-])nc4O3)cc2)CC1", "melting point": "186 to 188"}
{"molecule": "O=C1CC(c2ccccc2)c2cc(Br)ccc2O1", "note": "(stereo not given)", "melting point": 117}
{"molecule": "CC1(C)Cc2cc(Br)cc(O)c2O1", "melting point": 70}
{"molecule": "O=C1c2c(c(=O)n3nc(-c4ccccc4)cc3n2Cc2ccccc2)CCN1C1CCCCC1", "melting point": "247 to 248"}
{"molecule": "C/C(=C\\c1ccc(C(F)(F)F)cc1)C(=O)O", "melting point": 170}
{"molecule": "CCOC(=O)c1ccc(NC(=N)c2ccc(OC)cc2)cc1", "melting point": "128 to 132"}
{"molecule": "FC(F)(F)c1cccc(-c2cnn(-c3cccnc3)c2)n1", "melting point": "130 to 131"}
{"molecule": "C[C@@H](Nc1c(NCc2ccc(F)cc2)c(=O)c1=O)C(C)(C)C", "melting point": "289 to 291"}
{"molecule": "COc1ccc(C(=N)NS(=O)(=O)C=Cc2ccc(Cl)c(Cl)c2)cc1OC", "melting point": "205 to 210"}
{"molecule": "Cc1cc2cccc(N)c2cn1", "melting point": 175}
{"molecule": "CCn1cc(CC(=O)O)c(OCCCn2cc(C(=O)NCc3ccc(Cl)cc3Cl)c(OC(C)C)n2)n1", "melting point": "138 to 139"}
{"molecule": "NC(=O)C1(CCCCCCCCCCCCC2(C(=O)O)CC2)CC1", "melting point": "117 to 118"}
{"molecule": "COCC(C)Oc1cc(-n2c(=O)cc(C(F)(F)F)n(C)c2=O)c(F)cc1Cl", "note": "(stereo not given)", "melting point": "80 to 82"}
{"molecule": "CCOC(=O)Nc1ccccc1C(=O)OCC", "melting point": "< 40"}
